Results on 38 molecules are retold here after patent US9212163B2, “Pesticidal compositions and processes related thereto” (Dow AgroSciences LLC, priority 2012, dated 2015).

The structures appear in SMILES notation.

The subject of experiment [1] is Beet Armyworm (BAW) (Spodoptera exigua). Briefly: Bioassay on Beet Armyworm (BAW), 128-well diet tray assay. The format is in vivo. The conditions noted are these: Spodoptera exigua; Table 5: Prophetic Compounds Subsequently Exemplified; read-out: BAW Rating. Put shortly:
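Artificial diet treated with 50 μg/cm^2 compound in 90:10 acetone-water was dried, then one to five second-instar larvae were placed per well, eight wells per compound. Trays were held at 25° C., 14:10 light-dark for five to seven days, and percent mortality averaged across wells.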

Experiment [2] has as its system Cabbage Looper (CL) (Trichoplusia ni). Nature of the experiment: Bioassay on Cabbage Looper (CL), 128-well diet tray assay. The format is in vivo. The settings on record: Table 5: Prophetic Compounds Subsequently Exemplified, read-out: CL Rating. The method, then: Certain molecules disclosed in this document were tested against BAW, CEW and CL using procedures described in the following examples. In the reporting of the results, the “BAW & CEW & CL Rating Table” was used (See Table Section).
Bioassays on CL (Trichoplusia ni)
Bioassays on CL were conducted using a 128-well diet tray assay. One to five second instar CL larvae were placed in each well (3 mL) of the diet tray that had been previously filled with 1 mL of artificial diet to which 50 μg/cm^2 of the test compound (dissolved in 50 μL of 90:10 acetone-water mixture) had been applied (to each of eight wells) and then allowed to dry. Trays were covered with a clear self-adhesive cover, and held at 25° C., 14:10 light-dark for five to seven days. Percent mortality was recorded for the larvae in each well; activity in the eight wells was then averaged. The results are indicated in the table entitled “Table 4: Assay Results Part 2” (See Table Section).

Consider `O=C(NC1(C(=O)NCC(F)(F)F)CC1)c1ccc(/C=C/C(c2cccc(OC(F)(F)F)c2)C(F)(F)F)cc1C(F)(F)F` (stereo not shown) [Compound P155], for which the pest or weed control at 50 µg/cm2 in experiment [1] and in experiment [2] was 50 to 100% throughout.
Consider `O=C(NC1(C(=O)NCC(F)(F)F)CC1)c1ccc(/C=C/C(c2cc(F)cc(Br)c2)C(F)(F)F)cc1Br` (stereo not shown) [Compound P198], for which the pest or weed control at 50 µg/cm2 in experiment [1] and in experiment [2] was 50 to 100% in each case.
Turning to `O=C(NC1(C(=O)NCC(F)(F)F)CC1)c1ccc(/C=C/C(c2cc(F)cc(Br)c2)C(F)(F)F)cc1C(F)(F)F` (stereo not shown) [Compound P200], the pest or weed control at 50 µg/cm2 in experiment [1] and in experiment [2] was 50 to 100% each time.
Regarding `Cc1cc(C(/C=C/c2ccc(C(=O)NC3(C(=O)NCC(F)(F)F)CC3)c(Br)c2)C(F)(F)F)ccc1Cl` (stereo not shown) [Compound P243], the pest or weed control at 50 µg/cm2 in experiment [1] and in experiment [2] was 50 to 100% throughout.
As to `Cc1cc(C(/C=C/c2ccc(C(=O)NC3(C(=O)NCC(F)(F)F)CC3)c(C(F)(F)F)c2)C(F)(F)F)ccc1Cl` (stereo not shown) [Compound P245], the pest or weed control at 50 µg/cm2 in experiment [1] and in experiment [2] was 50 to 100% throughout.
As for `Cc1cc(C(/C=C/c2ccc(C(=O)NC3(C(=O)NCC(F)(F)F)CC3)c(Br)c2)C(F)(F)F)cc(C)c1F` (stereo not shown) [Compound P333], the pest or weed control at 50 µg/cm2 in experiment [1] and in experiment [2] was 50 to 100% each time.
Turning to `Cc1cc(C(/C=C/c2ccc(C(=O)NC3(C(=O)NCC(F)(F)F)CC3)c(C(F)(F)F)c2)C(F)(F)F)cc(C)c1F` (stereo not shown) [Compound P335], the pest or weed control at 50 µg/cm2 in experiment [1] and in experiment [2] was 50 to 100% each time.
For `Cc1cc(C(/C=C/c2ccc(C(=O)NC3(C(=O)NCC(F)(F)F)CC3)c(C(F)(F)F)c2)C(F)(F)F)ccc1F` (stereo not shown) [Compound P336], the pest or weed control at 50 µg/cm2 in experiment [1] and in experiment [2] was 50 to 100% throughout.
For the molecule `O=C(NC1(C(=O)NCC(F)(F)F)CC1)c1ccc(/C=C/C(c2cc(Cl)cc(Br)c2)C(F)(F)F)cc1Br` (stereo not shown) [Compound P378], the pest or weed control at 50 µg/cm2 in experiment [1] and in experiment [2] was 50 to 100% throughout.
`O=C(NC1(C(=O)NCC(F)(F)F)CC1)c1ccc(/C=C/C(c2cc(Cl)cc(Br)c2)C(F)(F)F)cc1C(F)(F)F` (stereo not shown) [Compound P380]: the pest or weed control at 50 µg/cm2 in experiment [1] and in experiment [2] was 50 to 100% each time.
Consider `O=C(NC1(C(=O)NCC(F)(F)F)CC1)c1ccc(/C=C/C(c2ccc(Br)c(Br)c2)C(F)(F)F)cc1Br` (stereo not shown) [Compound P423], for which the pest or weed control at 50 µg/cm2 in experiment [1] and in experiment [2] was 50 to 100% in each case.
With `O=C(NC1(C(=O)NCC(F)(F)F)CC1)c1ccc(/C=C/C(c2ccc(Br)c(Br)c2)C(F)(F)F)cc1C(F)(F)F` (stereo not shown) [Compound P425], the pest or weed control at 50 µg/cm2 in experiment [1] and in experiment [2] was 50 to 100% in each case.
`O=C(NC1(C(=O)NCC(F)(F)F)CC1)c1ccc(/C=C/C(c2ccc(Cl)c([N+](=O)[O-])c2)C(F)(F)F)cc1Br` (stereo not shown) [Compound P468]: the pest or weed control at 50 µg/cm2 in experiment [1] and in experiment [2] was 50 to 100% throughout.
Regarding `N#Cc1cc(C(/C=C/c2ccc(C(=O)NC3(C(=O)NCC(F)(F)F)CC3)c(Br)c2)C(F)(F)F)ccc1F` (stereo not shown) [Compound P513], the pest or weed control at 50 µg/cm2 in experiment [1] and in experiment [2] was 50 to 100% in each case.
With `N#Cc1cc(C(/C=C/c2ccc(C(=O)NC3(C(=O)NCC(F)(F)F)CC3)c(C(F)(F)F)c2)C(F)(F)F)ccc1F` (stereo not shown) [Compound P515], the pest or weed control at 50 µg/cm2 in experiment [1] and in experiment [2] was 50 to 100% throughout.
Take `Cc1cc(C(/C=C/c2ccc(C(=O)NC3(C(=O)NCC(F)(F)F)CC3)c(Br)c2)C(F)(F)F)ccc1F` (stereo not shown) [Compound P693]: the pest or weed control at 50 µg/cm2 in experiment [1] and in experiment [2] was 50 to 100% each time.
Turning to `O=C(NC1(C(=O)NCC(F)(F)F)CC1)c1ccc(/C=C/C(c2cc(Cl)c(Cl)c(Cl)c2)C(F)(F)C(F)(F)F)cc1Br` (stereo not shown) [Compound P1003], the pest or weed control at 50 µg/cm2 in experiment [1] and in experiment [2] was 50 to 100% throughout.
With `O=C(NC1(C(=O)NCC(F)(F)F)CC1)c1ccc(/C=C/C(c2cc(Cl)c(Cl)c(Cl)c2)C(F)(F)C(F)(F)F)cc1C(F)(F)F` (stereo not shown) [Compound P1005], the pest or weed control at 50 µg/cm2 in experiment [1] and in experiment [2] was 50 to 100% each time.
Consider `O=C(NC1(C(=S)NCC(F)(F)F)CC1)c1ccc(/C=C/C(c2cc(Cl)c(Cl)c(Cl)c2)C(F)(F)F)cc1Br` (stereo not shown) [Compound P1009], for which the pest or weed control at 50 µg/cm2 in experiment [1] and in experiment [2] was 50 to 100% in each case.
Take `O=C(NC1(C(=S)NCC(F)(F)F)CC1)c1ccc(/C=C/C(c2cc(Cl)c(Cl)c(Cl)c2)C(F)(F)F)cc1Cl` (stereo not shown) [Compound P1010]: the pest or weed control at 50 µg/cm2 in experiment [1] and in experiment [2] was 50 to 100% in each case.
Regarding `Cc1cc(/C=C/C(c2cc(Cl)c(Cl)c(Cl)c2)C(F)(F)F)ccc1C(=O)NC1(C(=S)NCC(F)(F)F)CC1` (stereo not shown) [Compound P1011], the pest or weed control at 50 µg/cm2 in experiment [1] and in experiment [2] was 50 to 100% in each case.
For `O=C(NC1(C(=O)NCC(F)F)CC1)c1ccc(/C=C/C(c2cc(Cl)c(Cl)c(Cl)c2)C(F)(F)F)cc1C(F)(F)F` (stereo not shown) [Compound P1015], the pest or weed control at 50 µg/cm2 in experiment [1] and in experiment [2] was 50 to 100% in each case.
In the case of `O=C(NC1(C(=O)NCCF)CC1)c1ccc(/C=C/C(c2cc(Cl)c(Cl)c(Cl)c2)C(F)(F)F)cc1C(F)(F)F` (stereo not shown) [Compound P1020], the pest or weed control at 50 µg/cm2 in experiment [1] and in experiment [2] was 50 to 100% throughout.
For `CCNC(=O)C1(NC(=O)c2ccc(/C=C/C(c3cc(Cl)c(Cl)c(Cl)c3)C(F)(F)F)cc2Br)CC1` (stereo not shown) [Compound P1023], the pest or weed control at 50 µg/cm2 in experiment [1] and in experiment [2] was 50 to 100% throughout.
For the molecule `O=C(NC1(C(=O)NCCC(F)(F)F)CC1)c1ccc(/C=C/C(c2cc(Cl)c(Cl)c(Cl)c2)C(F)(F)F)cc1Br` (stereo not shown) [Compound P1033], the pest or weed control at 50 µg/cm2 in experiment [1] and in experiment [2] was 50 to 100% throughout.
In the case of `O=C(NC1(C(=O)NCCC(F)(F)F)CC1)c1ccc(/C=C/C(c2cc(Cl)c(Cl)c(Cl)c2)C(F)(F)F)cc1C(F)(F)F` (stereo not shown) [Compound P1035], the pest or weed control at 50 µg/cm2 in experiment [1] and in experiment [2] was 50 to 100% in each case.
For `O=C(NC1(C(=O)NCC(F)(F)F)CC1)c1ccc(/C=C/C(c2cc(Cl)cc(Cl)c2)C(F)(F)C(F)(F)F)cc1Br` (stereo not shown) [Compound P1043], the pest or weed control at 50 µg/cm2 in experiment [1] and in experiment [2] was 50 to 100% each time.
With `O=C(NC1(C(=O)NCC(F)(F)F)CC1)c1ccc(/C=C/C(c2cc(Cl)cc(Cl)c2)C(F)(F)C(F)(F)F)cc1C(F)(F)F` (stereo not shown) [Compound P1045], the pest or weed control at 50 µg/cm2 in experiment [1] and in experiment [2] was 50 to 100% in each case.
For the molecule `O=C(NC1(C(=O)NCC(F)(F)F)CC1)c1ccc(/C=C/C(c2cc(Cl)cc(Cl)c2)C(F)(F)F)cc1Br` (stereo not shown) [Compound P1048], the pest or weed control at 50 µg/cm2 in experiment [1] and in experiment [2] was 50 to 100% each time.
With `O=C(NC1(C(=O)NCC(F)(F)F)CC1)c1ccc(/C=C/C(c2cc(Cl)cc(Cl)c2)C(F)(F)F)cc1C(F)(F)F` (stereo not shown) [Compound P1050], the pest or weed control at 50 µg/cm2 in experiment [1] and in experiment [2] was 50 to 100% each time.
For `O=C(NC1(C(=O)NCC(F)(F)F)CC1)c1ccc(/C=C/C(c2ccc(Cl)c(Cl)c2)C(F)(F)F)cc1Br` (stereo not shown) [Compound P1093], the pest or weed control at 50 µg/cm2 in experiment [1] and in experiment [2] was 50 to 100% each time.
Regarding `O=C(NC1(C(=O)NCC(F)(F)F)CC1)c1ccc(/C=C/C(c2ccc(Cl)c(Cl)c2)C(F)(F)F)cc1C(F)(F)F` (stereo not shown) [Compound P1095], the pest or weed control at 50 µg/cm2 in experiment [1] and in experiment [2] was 50 to 100% throughout.
Regarding `O=C(NC1(C(=O)NCC(F)(F)F)CC1)c1ccc(/C=C/C(c2cc(Br)cc(Br)c2)C(F)(F)F)cc1Br` (stereo not shown) [Compound P1183], the pest or weed control at 50 µg/cm2 in experiment [1] and in experiment [2] was 50 to 100% in each case.
`O=C(NC1(C(=O)NCC(F)F)CC1)c1ccc(/C=C/C(c2cc(Br)cc(Br)c2)C(F)(F)F)cc1Br` (stereo not shown) [Compound P1193]: the pest or weed control at 50 µg/cm2 in experiment [1] and in experiment [2] was 50 to 100% each time.
Turning to `O=C(NC1(C(=O)NCC(F)F)CC1)c1ccc(/C=C/C(c2cc(Br)cc(Br)c2)C(F)(F)F)cc1C(F)(F)F` (stereo not shown) [Compound P1195], the pest or weed control at 50 µg/cm2 in experiment [1] and in experiment [2] was 50 to 100% each time.
For the molecule `O=C(NC1(C(=O)NCC(F)(F)F)CC1)c1ccc(/C=C/C(c2cc(Br)cc(Br)c2)C(F)(F)F)cc1C(F)(F)F` (stereo not shown) [Compound P1198], the pest or weed control at 50 µg/cm2 in experiment [1] and in experiment [2] was 50 to 100% each time.
Consider `O=C(NC1(C(=O)NCCF)CC1)c1ccc(/C=C/C(c2cc(Br)cc(Br)c2)C(F)(F)F)cc1C(F)(F)F` (stereo not shown) [Compound P1200], for which the pest or weed control at 50 µg/cm2 in experiment [1] and in experiment [2] was 50 to 100% each time.
`O=C(NC1(C(=O)NCCC(F)(F)F)CC1)c1ccc(/C=C/C(c2cc(Br)cc(Br)c2)C(F)(F)F)cc1Br` (stereo not shown) [Compound P1213]: the pest or weed control at 50 µg/cm2 in experiment [1] and in experiment [2] was 50 to 100% in each case.
